Two molecules from US11090275B2, “Compositions comprising cannabidiol and second therapeutic agents for the treatment of cancer” (JAY PHARMA, INC., priority 2015, dated 2021) can be followed below.

Where two headings read alike, the source gives them in different places.

For test [1], the system named is HL-60 cells. In words: XTT cell viability, HL-60 cells. Format: cell-based, human. The conditions noted are these: for IC50: Homo sapiens. The method, then:
(§1) human HL-60, myeloblastic leukemia and CCRF-CEM, acute lymphoblastic leukemia cell line were cultured in RPMI-1640 supplemented with 10% (v/v) heat-inactivated fetal calf serum, 2 mM L-glutamine, 100U/ml penicillin and 100 μg/ml streptomycin. MCF-7, breast cancer and A-172, glioblastoma cell lines were cultured in DMEM supplemented with 10% (v/v) heat-inactivated fetal calf serum, 2 mM L-glutamine, 100U/ml penicillin and 100 μg/ml streptomycin. Cultures were maintained at 37° C. in a humidified atmosphere with 5% CO2 and maintained in exponential phase by transfer to fresh medium every 2-3 days. Experiments were conducted in serum free medium and 5% or 10% FCS medium. The trypanblue dye exclusion method was used for cell counting performed using a hemocytometer under light microscope.

In test [2] the test system is CCRF-CEM cells. In words: XTT cell viability, CCRF-CEM cells. Format: cell-based, human. As to conditions: cannabidiol at 5 μM or more, 24h. The method, then:
as §1

In a further test the test system is A-172 cells. In words: XTT cell viability, A-172 cells. It is filed as cell-based, human. As to conditions: cannabidiol at 5 μM or more, 48h. The procedure:
as §1
(In general: Formazan colour is commonly taken as a measure of viable cells.)

In the next test the test system is MCF-7 cells. In words: XTT cell viability, MCF-7 cells. It is filed as cell-based. As to conditions: cannabidiol at 5 μM or more, 24h. The procedure:
as §1

Test [3] has as its system HL-60 cells. In words: Morphological quantification of apoptosis (acridine orange/ethidium bromide), HL-60. As to conditions: 5% FCS medium, 24 and 48h. Format: cell-based, human. The method, then: (§2) for determination of apoptosis, cells were harvested (650 g, 7 min) and stained with acridine orange/ethidium bromide at a final concentration of 0.05 mg/ml. This method allows distinguishing between live, necrotic and apoptotic cells (FIG. 11). […] At least 100 cells were counted under a fluorescence microscope and the percentage of affected cells was calculated.

The subject of test [4] is CCRF-CEM cells. In words: Morphological quantification of apoptosis (acridine orange/ethidium bromide), CCRF-CEM. It is filed as cell-based, human. As to conditions: serum free and 5% FCS medium, 24h. The method, then: as §2
The test system of a further test is Mcl-1. The test can be described thus: Western blot of Mcl-1 in CCRF-CEM cells. It is filed as cell-based, human. The conditions noted are these: 20 μM cannabidiol, by 3h of treatment. The procedure:
Cells washed twice with ice cold PBS and lysed in RIPA buffer (50 mM Tris-HCl, 0.1% NP-40, 1 mM DTT, 0.25M sucrose, 2 mM MgCl2, pH 7.4) for 30 min on ice. After centrifugation, the post-nuclear supernatant containing the cell soluble fraction were loaded on to a 12% SDS-PAGE gel. After electrophoresis, the gels were blotted onto a PVDF membrane (Bio-Rad, Hercules, Calif.), blocked with 5% (w/v) milk for overnight at 4° C. temperature, washed briefly in Tris-Buffered Saline Tween-20 (TBST), and then probed overnight at 4° C. with the anti-mouse human anti-MC1-1 and calreticulin (CRN) primary antibodies. Primary antibody binding was detected with anti-mouse IgG conjugated to horseradish peroxidase (Jackson Immunoresearch, Avondale, Pa.), and made visible by enhanced chemiluminescence (ECL) (Biological Industries, Israel), according to manufacturer's instructions. Antibodies against MCl-1 and calreticulin (CRN) were purchased from Santa Cruz, Calif., USA.

The subject of a further test is HL-60 tumor. In words: Mouse xenograft model transplanted with HL-60 cells. Format: in vivo. As to conditions: 5 mg/kg CBD, 10 mg/kg CL, alone and combination, peritumoral; days 7 through 14. The procedure:
NOD/SCID mice were bred and housed at animal facility of Ben-Gurion University of the Negev, Israel. All animals were used between 7-8 weeks old of age. For induction of tumor, mice were irradiated with 2.7 Gy X ray radiation for 2 min. The following 5 hours, mice were injected with 1 million viable HL-60 cells on right flank of mice. Mice were monitored for tumorigenesis. Tumors were measured during 14 days and their volumes (mm^3) were calculated as (d^2XD)/2 (where d is the shortest and D is the longest diameter of the tumor in mm). […] The injection was repeated once a day, 5 days per week, and tumor volumes were checked twice a week until the vehicle died and the remained animals were sacrificed.

The term IC50 denotes the concentration that gives 50% inhibition. On to `C=C(C)[C@@H]1CCC(C)=C[C@H]1c1c(O)cc(CCCCC)cc1O` [CBD, Cannabidiol], for which, in the test on HL-60 cells [1] (0.2 μM, serum free condition, 24h), the “effect on cell viability at very low concentration” value is recorded as “profound effect on reduction of cell viability”. Moreover, the “sensitivity of cells to CBD” value in the test on HL-60 cells [1] (10% FCS medium, 24h) is “less sensitive”. For the same molecule, the IC50 is 0.26 µM in the test with HL-60 cells [1] (HL-60, 24 h, read-out: IC50, cell viability) and 16 µM in the test on HL-60 cells [1] (HL-60, 48 h, read-out: IC50 value, cell viability). In addition, the “number of viable cells” value in the test on HL-60 cells [1] (cannabidiol at 5 μM or more, 24h and 48 h) is listed as “significant reduction in the number of viable cells”; with CCRF-CEM cells [2], “significant reduction in the number of viable cells”; in the test with A-172 cells, “significant reduction in the number of viable cells”; with MCF-7 cells, “significant reduction in the number of viable cells”. In addition, the induction of apoptosis result in the test on HL-60 cells [3] was “dose and time dependent induction of apoptosis”; in the test on CCRF-CEM cells [4], “dose and time dependent induction of apoptosis”. In addition, in the test with Mcl-1, the Mcl-1 expression entry is reported as “down regulated”. Moreover, the HL-60 tumor growth entry in the test on HL-60 tumor is “significant suppression”.

For the molecule `CCN(CC)CCOc1ccc(C(=C(Cl)c2ccccc2)c2ccccc2)cc1` [clomiphene], the HL-60 tumor growth result in the test with HL-60 tumor was “significant suppression”.
